Results on one substance are retold here after patent publication US6667034B2, “METHODS FOR REGULATING THE SPECIFIC LINEAGES OF CELLS PRODUCED IN A HUMAN HEMATOPOIETIC CELL CULTURE, METHODS FOR ASSAYING THE EFFECT OF SUBSTANCES ON LINEAGE-SPECIFIC CELL PRODUCTION, AND CELL COMPOSITIONS PRODUCED BY THESE CULTURES” (The Regents of the University of Michigan, priority 1989, dated 2003).

Holding throughout (assay type): cell-based
In assay [1] the test system is Human bone marrow cells. Put plainly: Population balance: cumulative production of CFU-GM removed and differentiated in HGF supplemented LTBMCs (Example 5, Table 7). An excerpt:
(§1) Production of Progenitor Cells from Stem Cells. Although the most primitive hematopoietic cells that can be directly assayed are the progenitor cells; CFU-GEMM, CFU-GM, and BFU-E, the presence and activity or earlier stem cells can be inferred by the continued production of progenitor cells. Thus, progenitor cell production is an indirect measure of primitive stem cell activity. One can assay stem cells, therefore, by analyzing the kinetics of the progenitor cell pool. The four process rates that determine the progenitor cell pool size are: V1: The rate of production of progenitor cells by more undifferentiated stem cells; V2: The rate of loss of progenitor cells through the act of sampling of nonadherent cells from the culture; V3: The rate of loss of progenitor cells by their differentiation to mature cells of a particular lineage; V4: The rate of death of progenitor cells. The initial number, C0, of each progenitor cell species can be determined by assay at culture initiation. The question that we wish to answer is; Are stem cells being stimulated to produced progenitor cells—i.e. is V1 greater than zero? Cell death, V4, cannot be assessed. V2 however, can be measured by assaying the nonadherent cells removed from culture, and V3 can be estimated from nonadherent cell production data. A conservative estimate of the rate of progenitor cell differentiation, V3, can be determined by assuming that each progenitor cell has 10 divisions remaining to become a terminally differentiated cell. Therefore, each progenitor cell is equivalent to 2^10 (1024) mature cells. From the total number of mature cells produced of a specific lineage, the number of progenitor cells (BFU-E and CFU-GM) that differentiated can be back-calculated. Therefore, if the removal and differentiation of progenitor cells (V2+V3) exceeds the numbers of progenitor cells inoculated, Co, then progenitor cells must have been produced, and V1 is greater than zero.

Assay [2] deals with Human bone marrow cells. Put plainly: Cumulative number of progenitor cells removed from rapidly perfused HGF supplemented LTBMCs (Example 5, Table 5). The protocol: Hematopoietic progenitor cell assay: Nonadherent hematopoietic cells removed from culture were counted and plated at 1·10^5 cells/ml or fewer cells in methylcellulose. GM-CSF and Epo were added to the methylcellulose at 20 ng/ml and 2 U/ml, respectively. The cells were plated in 24 well plates at 0.25 ml/well and incubated at 37° C. for 14 days. The colonies were then counted under an inverted microscope and colonies greater than 50 cells were scored as GM-colony forming units (CFU-GM), erythroid burst-forming unit (BFU-E), or granulocyte erythroid megakaryocyte macrophage-colony forming unit (CFU-GEMM). Cells, hematopoietic progenitor cell assays, LTBMCs, and statistical analyses were as in Example 1.

For assay [3], the system named is Human bone marrow cells. Nature of the assay: Cumulative cell production by cell lineage in growth factor supplemented LTBMCs over the first 6.5 weeks (Example 5, Table 4). To be noted: first 6.5 weeks of culture. An excerpt: Cells, hematopoietic progenitor cell assays, LTBMCs, and statistical analyses were as in Example 1.
Assay [4] deals with Human bone marrow cells. Nature of the assay: Population balance: cumulative production of BFU-E removed and differentiated in HGF supplemented LTBMCs (Example 5, Table 6).
Excerpt: as §1

Setting [5] is: back-calculated assuming each progenitor cell is equivalent to 2^10 (1024) mature cells.
The mark [6] stands for this setting: cumulative, rapidly perfused LTBMCs.
Setting [7] is: rapidly perfused HGF supplemented LTBMCs.
Where [8] appears, read: IL-3 1 ng/ml, GM-CSF 1 ng/ml, Epo 0.1 U/ml, IL-6 10 U/ml, G-CSF 0.1 ng/ml.

As to “GM-CSF: hematopoietic growth factor, 1 ng/ml (Amgen Biologicals, Cat. No. 13050)”, in the assay with Human bone marrow cells [1] (setting [5]), the “Estimated number of CFU-GM that differentiated (V3)” value is on record as 11,700. Further, the “Number of GM cells removed (×10^4) (V3)” value with Human bone marrow cells [1] (setting [6]) is on record as 11.7 ×10^4. In addition, the “Number of CFU-GM removed (plated) (V2)” value with Human bone marrow cells [1] (every fourth biweekly sampling assayed, others by linear interpolation, inoculum 2500 CFU-GM) is listed as 2200. Moreover, the “Total number of CFU-GM (V3)” value in the assay with Human bone marrow cells [1] (removed plus differentiated) is 13,900. Further, the “increase in the total number of CFU-GEMM removed from culture” value with Human bone marrow cells [2] (setting [6]) was found to be 1.6 fold. Besides, in the assay on Human bone marrow cells [2] (individual growth factor), the “effect on total CFU-GM” value is listed as “only a slight increase”. Besides, in the assay on Human bone marrow cells [2] (setting [7]), the “cumulative number of progenitor cells removed: BFU-E” value amounted to 800, the “cumulative number of progenitor cells removed: CFU-GEMM” value was determined as 80 and the “cumulative number of progenitor cells removed: CFU-GM” value came out at 2200. Further, in the assay with Human bone marrow cells [3] (setting [8]), the “Cumulative cell production: Early Granulocytes (EG)” value is reported as 2.7 ×10^6 cells per culture, the “Cumulative cell production: Erythroid (E)” value is recorded as 0.11 ×10^6 cells per culture, the “Cumulative cell production: Late Granulocytes (LG)” value is reported as 6.8 ×10^6 cells per culture and the “Cumulative cell production: Macrophages (Mo)” value is 2.1 ×10^6 cells per culture. The “ratio (LG/EG)” value with Human bone marrow cells [3] (late to early granulocytes) is given as 2.5. For the same substance, the “Estimated number of BFU-E that differentiated (V3)” value with Human bone marrow cells [4] (setting [5]) is listed as 100. Besides, the “Number of erythroid cells removed (×10^4) (V3)” value in the assay on Human bone marrow cells [4] (setting [6]) is 0.1 ×10^4. Further, in the assay with Human bone marrow cells [4] (every fourth biweekly sampling assayed, others by linear interpolation, inoculum 2900 BFU-E), the “Number of BFU-E removed (plated) (V3)” value came to 800. Also, the “Total number of BFU-E (V3)” value in the assay on Human bone marrow cells [4] (removed plus differentiated, inoculum 2900) is reported as 900.
